Assay results: the supplement of paper PMC10627819

Columns and labels:
Assay in all cases: fitness (endpoint OD595 vs no drug) (fraction); higher = more growth
B. subtilis 168 = system: B. subtilis 168
How it was run: (§1)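 Fitness was defined as the optical density at the transition into stationary phase relative to the robust mean of no-drug control wells. Values were capped at 1. Cultures were started at OD595 0.01 in 384-well plates (30 µl, or 55 µl for S. pneumoniae) in TSB, LB Lennox or CY at 37 °C. OD595 was recorded every 30 min over 14 h, with the first reading subtracted as background.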

S. aureus DSM 20231 = system: S. aureus DSM 20231
How it was run: as §1

S. aureus Newman = system: S. aureus Newman
How it was run: as §1

S. pneumoniae D39V = system: S. pneumoniae D39V
How it was run: as §1

CCCCCCCCCC(=O)N[C@@H](Cc1c[nH]c2ccccc12)C(=O)N[C@H](CC(N)=O)C(=O)N[C@@H](CC(=O)O)C(=O)N[C@@H]1C(=O)NCC(=O)N[C@@H](CCCN)C(=O)N[C@@H](CC(=O)O)C(=O)N[C@H](C)C(=O)N[C@@H](CC(=O)O)C(=O)NCC(=O)N[C@H](CO)C(=O)N[C@@H]([C@H](C)CC(=O)O)C(=O)N[C@@H](CC(=O)c2ccccc2N)C(=O)O[C@@H]1C [Daptomycin] + N[C@@H]1CONC1=O [Cycloserine D]
fitness
Settings	first compound 0.125 µg/mL	first compound 0.25 µg/mL	first compound 0.5 µg/mL	first compound 1 µg/mL	first compound 2 µg/mL
B. subtilis 168, partner 0.125 µg/mL	0.962	0.978	0.945	–	–
B. subtilis 168, partner 0.25 µg/mL	0.903	0.923	0.886	–	–
B. subtilis 168, partner 0.5 µg/mL	0.921	0.989	0.874	–	–
S. aureus DSM 20231, partner 0.375 µg/mL	–	–	0.964	≥ 1	≥ 1
S. aureus DSM 20231, partner 0.75 µg/mL	–	–	0.996	0.983	0.978
S. aureus DSM 20231, partner 1.5 µg/mL	–	–	≥ 1	≥ 1	≥ 1
S. aureus Newman, partner 0.375 µg/mL	0.979	0.983	0.983	–	–
S. aureus Newman, partner 0.75 µg/mL	0.996	0.999	≥ 1	–	–
S. aureus Newman, partner 1.5 µg/mL	≥ 1	≥ 1	0.993	–	–

B. subtilis 168, first compound 1 µg/mL, one replicate
Settings	fitness
partner 0.125 µg/mL	0.784
partner 0.25 µg/mL	0.758
partner 0.5 µg/mL	0.737

C[C@H]1COc2c(N3CCN(C)CC3)c(F)cc3c(=O)c(C(=O)O)cn1c23 [Levofloxacin] + CC1=C(C(=O)O)N2C(=O)[C@@H](NC(=O)[C@H](N)c3ccccc3)[C@H]2SC1 [Cephalexin]
fitness, one replicate
Settings	first compound 0.001 µg/mL	first compound 0.002 µg/mL	first compound 0.0039 µg/mL	first compound 0.2 µg/mL	first compound 0.4 µg/mL	first compound 0.8 µg/mL
B. subtilis 168, partner 0.25 µg/mL	0.969	0.896	0.836	–	–	–
B. subtilis 168, partner 0.5 µg/mL	0.991	0.91	0.838	–	–	–
B. subtilis 168, partner 1 µg/mL	0.921	0.919	0.868	–	–	–
S. pneumoniae D39V, partner 0.125 µg/mL	–	–	–	0.874	0.758	0.316
S. pneumoniae D39V, partner 0.25 µg/mL	–	–	–	0.91	0.782	0.354
S. pneumoniae D39V, partner 0.5 µg/mL	–	–	–	0.903	0.8	0.369

Settings	fitness
B. subtilis 168, first compound 0.0312 µg/mL, partner 0.125 µg/mL	0.0416
B. subtilis 168, first compound 0.0312 µg/mL, partner 0.25 µg/mL	0.0347
B. subtilis 168, first compound 0.0312 µg/mL, partner 0.5 µg/mL	0.036
B. subtilis 168, first compound 0.0625 µg/mL, partner 0.125 µg/mL	0.0518
B. subtilis 168, first compound 0.0625 µg/mL, partner 0.25 µg/mL	0.037
B. subtilis 168, first compound 0.0625 µg/mL, partner 0.5 µg/mL	0.043
B. subtilis 168, first compound 0.125 µg/mL, partner 0.125 µg/mL	0.0423
B. subtilis 168, first compound 0.125 µg/mL, partner 0.25 µg/mL	0.0386
B. subtilis 168, first compound 0.125 µg/mL, partner 0.5 µg/mL	0.0448
S. pneumoniae D39V, first compound 0.1725 µg/mL, partner 2 µg/mL	0.176
S. pneumoniae D39V, first compound 0.1725 µg/mL, partner 4 µg/mL	0.0529
S. pneumoniae D39V, first compound 0.345 µg/mL, partner 2 µg/mL	0.103
S. pneumoniae D39V, first compound 0.345 µg/mL, partner 4 µg/mL	0.001
S. pneumoniae D39V, first compound 0.69 µg/mL, partner 1 µg/mL	0.235
S. pneumoniae D39V, first compound 0.69 µg/mL, partner 2 µg/mL	0.0462
S. pneumoniae D39V, first compound 0.69 µg/mL, partner 4 µg/mL	0.022

C[C@H]1COc2c(N3CCN(C)CC3)c(F)cc3c(=O)c(C(=O)O)cn1c23 [Levofloxacin] + CO[C@@]12[C@H](COC(N)=O)C3=C(C(=O)C(C)=C(N)C3=O)N1C[C@@H]1N[C@@H]12 [Mitomycin C]
fitness, S. pneumoniae D39V
Settings	first compound 0.1725 µg/mL	first compound 0.2 µg/mL	first compound 0.345 µg/mL	first compound 0.4 µg/mL	first compound 0.69 µg/mL	first compound 0.8 µg/mL
partner 0.001075 µg/mL	–	0.883	–	0.777	–	0.422
partner 0.002 µg/mL	0.817	–	0.699	–	0.404	–
partner 0.00215 µg/mL	–	0.871	–	0.769	–	0.362
partner 0.004 µg/mL	0.782	–	0.687	–	0.355	–
partner 0.0043 µg/mL	–	0.78	–	0.699	–	0.331
partner 0.008 µg/mL	0.694	–	0.595	–	0.387	–

CN(C)C(=O)C(CCN1CCC(O)(c2ccc(Cl)cc2)CC1)(c1ccccc1)c1ccccc1 [Loperamide] + CC(=O)NC[C@H]1CN(c2ccc(N3CCOCC3)c(F)c2)C(=O)O1 [Linezolid]
one replicate
Settings	fitness
B. subtilis 168, first compound 25 µg/mL, partner 0.0625 µg/mL	0.584
B. subtilis 168, first compound 50 µg/mL, partner 0.0625 µg/mL	0.0437
B. subtilis 168, first compound 100 µg/mL, partner 0.0625 µg/mL	0.0474
S. pneumoniae D39V, first compound 68.57 µg/mL, partner 0.2 µg/mL	0.91
S. pneumoniae D39V, first compound 68.57 µg/mL, partner 0.4 µg/mL	0.884
S. pneumoniae D39V, first compound 68.57 µg/mL, partner 0.8 µg/mL	0.532

Settings	fitness
B. subtilis 168, first compound 25 µg/mL, partner 0.125 µg/mL	0.607
B. subtilis 168, first compound 25 µg/mL, partner 0.25 µg/mL	0.066
B. subtilis 168, first compound 25 µg/mL, partner 0.5 µg/mL	0.0361
B. subtilis 168, first compound 50 µg/mL, partner 0.25 µg/mL	0.0362
B. subtilis 168, first compound 50 µg/mL, partner 0.5 µg/mL	0.0318
B. subtilis 168, first compound 100 µg/mL, partner 0.125 µg/mL	0.0357
B. subtilis 168, first compound 100 µg/mL, partner 0.25 µg/mL	0.0269
B. subtilis 168, first compound 100 µg/mL, partner 0.5 µg/mL	0.0353
S. pneumoniae D39V, first compound 17.14 µg/mL, partner 0.2 µg/mL	0.815
S. pneumoniae D39V, first compound 17.14 µg/mL, partner 0.4 µg/mL	0.709
S. pneumoniae D39V, first compound 17.14 µg/mL, partner 0.8 µg/mL	0.414
S. pneumoniae D39V, first compound 20 µg/mL, partner 0.105 µg/mL	0.938
S. pneumoniae D39V, first compound 20 µg/mL, partner 0.21 µg/mL	0.839
S. pneumoniae D39V, first compound 20 µg/mL, partner 0.42 µg/mL	0.652
S. pneumoniae D39V, first compound 34.28 µg/mL, partner 0.2 µg/mL	0.806
S. pneumoniae D39V, first compound 34.28 µg/mL, partner 0.4 µg/mL	0.701
S. pneumoniae D39V, first compound 34.28 µg/mL, partner 0.8 µg/mL	0.367
S. pneumoniae D39V, first compound 40 µg/mL, partner 0.105 µg/mL	0.947
S. pneumoniae D39V, first compound 40 µg/mL, partner 0.21 µg/mL	0.843
S. pneumoniae D39V, first compound 40 µg/mL, partner 0.42 µg/mL	0.58
S. pneumoniae D39V, first compound 80 µg/mL, partner 0.42 µg/mL	0.179

CN(C)C(=O)C(CCN1CCC(O)(c2ccc(Cl)cc2)CC1)(c1ccccc1)c1ccccc1 [Loperamide] + CO[C@@]12[C@H](COC(N)=O)C3=C(C(=O)C(C)=C(N)C3=O)N1C[C@@H]1N[C@@H]12 [Mitomycin C]
S. pneumoniae D39V
Settings	fitness
first compound 17.14 µg/mL, partner 0.002 µg/mL	0.871
first compound 17.14 µg/mL, partner 0.004 µg/mL	0.796
first compound 17.14 µg/mL, partner 0.008 µg/mL	0.662
first compound 20 µg/mL, partner 0.001075 µg/mL	≥ 1
first compound 20 µg/mL, partner 0.00215 µg/mL	≥ 1
first compound 20 µg/mL, partner 0.0043 µg/mL	0.926
first compound 34.28 µg/mL, partner 0.002 µg/mL	0.843
first compound 34.28 µg/mL, partner 0.004 µg/mL	0.8
first compound 34.28 µg/mL, partner 0.008 µg/mL	0.616
first compound 40 µg/mL, partner 0.001075 µg/mL	≥ 1
first compound 40 µg/mL, partner 0.00215 µg/mL	≥ 1
first compound 40 µg/mL, partner 0.0043 µg/mL	0.953
first compound 80 µg/mL, partner 0.001075 µg/mL	0.804
first compound 80 µg/mL, partner 0.00215 µg/mL	0.801

S. pneumoniae D39V, first compound 68.57 µg/mL, one replicate
Settings	fitness
partner 0.002 µg/mL	0.814
partner 0.004 µg/mL	0.712
partner 0.008 µg/mL	0.672
